For one series, the system named is MDA-MB-435. Description: Antiproliferative activity against human MDA-MB-435 cells after 3 days by MTT assay. The series is classed as functional, cell-based. The settings on record: MDA-MB-435, 72 h. On the technique in general: Tetrazolium dyes change colour on reduction, which living cells bring about.
For a further series, the system named is HCT-116. Description: Antiproliferative activity against human HCT116 cells after 3 days by MTT assay. It is filed as functional, cell-based. The settings on record: HCT-116, 72 h.
Series [1] deals with A549. Description: Antiproliferative activity against human A549 cells after 3 days by MTT assay. It is filed as functional, cell-based. The settings on record: A549, 72 h.
Series [2] has as its system Mus musculus. Description: Toxicity in human A549 cells xenografted in BALB/c mouse assessed as mortality at 2 mg/kg, ip qd for 5 days measured after 14 days. It is filed as organism-based. On the set-up: dose 2 mg/kg, route intraperitoneal. To be noted: in vivo, 336 h.
Series [3] deals with Mus musculus. The series can be described thus: Toxicity in human A549 cells xenografted in BALB/c mouse assessed as gross abnormalities at 2 mg/kg, ip qd for 5 days measured after 14 days by necropsy analysis. The settings on record: in vivo, 336 h. On the set-up: dose 2 mg/kg, route intraperitoneal. The series is classed as organism-based. A general note: Xenograft models place foreign cells or tissue in a host animal.

The test system of series [4] is A549. The series can be described thus: Antitumor activity against human A549 cells xenografted in BALB/c mouse assessed as decrease in tumor weight at 2 mg/kg, ip qd for 5 days measured after 14 days relative to control. To be noted: route intraperitoneal, read-out: TGI. It is filed as functional.
The species named for series [5] is Bos taurus. The series can be described thus: Inhibition of calf thymus DNA topoisomerase 1-mediated relaxation of supercoiled DNA pBR322 assessed as appearance of short DNA fragment at 100 uM after 15 mins by agarose gel electrophoresis.
The test system of series [6] is Mus musculus. The series can be described thus: Toxicity in human A549 cells xenografted in BALB/c mouse assessed as reduction in body weight at 2 mg/kg, ip qd for 5 days measured after 14 days. The series is classed as organism-based. On the set-up: dose 2 mg/kg, route intraperitoneal. To be noted: in vivo, 336 h.
For a further series, the system named is ZR-75-30. Description: Antiproliferative activity against human ZR75-30 cells after 3 days by MTT assay. It is filed as functional, cell-based. To be noted: ZR-75-30, 72 h.
Series [7] deals with A549. Description: Induction of apoptosis in human A549 cells at 5 uM after 48 hrs by annexinV and propidium iodide dual stain based flow cytometry analysis relative to control. It is filed as functional.
The subject of series [8] is A549. Description: Induction of apoptosis in human A549 cells assessed as morphological change at 5 uM after 48 hrs by phase contrast microscopy analysis. The series is classed as functional, cell-based.
The next series deals with MRC5. Description: Antiproliferative activity against human MRC5 cells after 3 days by MTT assay. The settings on record: mrc5, 72 h. It is filed as cell-based.
The species entered for series [9] is Bos taurus. The series can be described thus: Inhibition of calf thymus DNA topoisomerase 1-mediated relaxation of supercoiled DNA pBR322 assessed as appearance of short DNA fragment at 1 to 50 uM after 15 mins by agarose gel electrophoresis.
Series [10] has as its system Mus musculus. The series can be described thus: Toxicity in human A549 cells xenografted in BALB/c mouse assessed as mortality at 0.5 mg/kg, iv qd for 5 days measured after 14 days. The series is classed as organism-based. Details: dose 0.5 mg/kg, route intravenous. To be noted: in vivo, 336 h.
In series [11] the test system is Mus musculus. Description: Toxicity in human A549 cells xenografted in BALB/c mouse assessed as reduction in body weight at 0.5 mg/kg, iv qd for 5 days measured after 14 days. The series is classed as organism-based. Details: dose 0.5 mg/kg, route intravenous. To be noted: in vivo, 336 h.
The test system of series [12] is A549. The series can be described thus: Antitumor activity against human A549 cells xenografted in BALB/c mouse assessed as decrease in tumor weight at 0.5 mg/kg, iv qd for 5 days measured after 14 days relative to control. It is filed as functional. The settings on record: read-out: TGI.
Series [13] is filed under the species Bos taurus. The series can be described thus: Inhibition of calf thymus DNA topoisomerase 1-mediated relaxation of supercoiled DNA pBR322 assessed as appearance of short DNA fragment after 15 mins by agarose gel electrophoresis.

A word on the IC50: it is the midpoint of a concentration-inhibition curve. A high value points to lower potency.

Molecules are shown by their SMILES. Active and inactive are the calls of the source. The rule behind the calls is not given here.

`CCOCCO[C@@H]1OCc2c(cc3n(c2=O)Cc2cc4c([N+](=O)[O-])cccc4nc2-3)[C@@]1(O)CC`: the IC50 in the series on MDA-MB-435 is 1080 nM; with HCT-116, 56.9 nM; in the series with A549 [1], 5690 nM.
On to `CCOCCO[C@@H]1OCc2c(cc3n(c2=O)Cc2cc4ccccc4nc2-3)[C@@]1(O)CC`, for which the Activity result with Mus musculus [2] is on record as “Non-toxic”; in the series with Mus musculus [3], “Non-toxic”; in the series on Mus musculus [6], 20.98 g. The figures for the IC50 in the series with MDA-MB-435, in the series on HCT-116 and with A549 [1] were 469 nM, 90.2 nM and 2580 nM, respectively. For the same molecule, the inhibition in vivo at 2 mg/kg in the series with A549 [4] is 35%. Moreover, the inhibition entry in the series listed under Bos taurus [5] was “Active”.
`CCO[C@@H]1OCc2c(cc3n(c2=O)Cc2cc4ccccc4nc2-3)[C@@]1(O)CC`: the IC50 stood at 6250 nM with MDA-MB-435, 406 nM in the series on HCT-116 and 322 nM in the series with A549 [1]. Further, the inhibition result in the series listed under Bos taurus [5] was “Active”.
`CC[C@]1(O)c2cc3n(c(=O)c2CO[C@H]1OCCF)Cc1cc2ccccc2nc1-3`: the IC50 in the series on MDA-MB-435 amounted to 1330 nM; in the series on HCT-116, 249 nM; in the series on A549 [1] it was 6310 nM. Besides, in the series filed under Bos taurus [5], the inhibition entry is “Active”.
In the case of `CCCO[C@@H]1OCc2c(cc3n(c2=O)Cc2cc4ccccc4nc2-3)[C@@]1(O)CC`, the IC50 in the series with MDA-MB-435 stood at 12700 nM; in the series on HCT-116, 517 nM; in the series with A549 [1], 323 nM.
On to `CC[C@]1(O)c2cc3n(c(=O)c2CO[C@H]1OC(=O)CCC(=O)O)Cc1cc2ccccc2nc1-3`, for which the results for the IC50 with MDA-MB-435, in the series with HCT-116 and in the series with A549 [1] were 1320 nM, 264 nM and 308 nM, respectively.
In the case of `CC[C@]1(O)c2cc3n(c(=O)c2CO[C@@H]1OC)Cc1cc2ccccc2nc1-3`, the IC50 in the series on MDA-MB-435 was determined as 56400 nM; in the series with HCT-116, 8170 nM; in the series on A549 [1], 8800 nM.
Turning to `CC[C@]1(O)c2cc3n(c(=O)c2CO[C@H]1OC(C)COC)Cc1cc2ccccc2nc1-3` (stereo partly drawn), the IC50 in the series with MDA-MB-435 amounted to 2740 nM; with HCT-116, 117 nM; in the series with A549 [1], 8380 nM.
On to `CCOCC(C)O[C@@H]1OCc2c(cc3n(c2=O)Cc2cc4ccccc4nc2-3)[C@@]1(O)CC` (stereo partly drawn), for which the figures for the half-inhibitory concentration (IC50) with MDA-MB-435, in the series on HCT-116 and in the series with A549 [1] were 2520 nM, 236 nM and 7400 nM, respectively.
The like results for `CCC(C)O[C@@H]1OCc2c(cc3n(c2=O)Cc2cc4ccccc4nc2-3)[C@@]1(O)CC` (stereo partly drawn) were, in that order, over 100000 nM, over 100000 nM and over 100000 nM.
Regarding `CC[C@]1(O)c2cc3n(c(=O)c2CO[C@H]1OC(C)C)Cc1cc2ccccc2nc1-3`, the figures for the IC50 in the series with MDA-MB-435, with HCT-116 and in the series with A549 [1] were over 100000 nM, 11500 nM and over 100000 nM, respectively.
Turning to `CC[C@]1(O)c2cc3n(c(=O)c2CO[C@H]1OCCOC)Cc1cc2ccccc2nc1-3`, the results for the 50% inhibitory concentration (IC50) in the series with MDA-MB-435, with HCT-116 and in the series on A549 [1] were 4920 nM, 333 nM and 5190 nM, respectively. Moreover, the inhibition entry in the series filed under Bos taurus [5] is “Active”.
Regarding `CC[C@]1(O)c2cc3n(c(=O)c2CO[C@H]1OCC(C)C)Cc1cc2ccccc2nc1-3`, the figures for the IC50 in the series on MDA-MB-435, in the series with HCT-116 and in the series with A549 [1] were 7900 nM, 210 nM and 394 nM, respectively.
In the case of `CC[C@]1(O)c2cc3n(c(=O)c2CO[C@H]1OCC(F)(F)C(F)(F)F)Cc1cc2ccccc2nc1-3`, the IC50 with MDA-MB-435 was found to be 606 nM; with HCT-116, 73 nM; in the series with A549 [1], 302 nM.
In the case of `CCCCc1c2c(nc3ccccc13)-c1cc3c(c(=O)n1C2)CO[C@@H](OCCOCC)[C@]3(O)CC`, the Activity result in the series with Mus musculus [2] is on record as “Non-toxic”; with Mus musculus [3], “Non-toxic”; in the series with A549 [7], 0.5%; with MRC5 it was “Non-toxic”; with Mus musculus [6], 21.09 g. For the same molecule, the IC50 in the series with MDA-MB-435 came out at 223 nM; in the series on HCT-116 it was 1 nM; in the series with ZR-75-30, 122 nM; in the series with A549 [1], 598 nM. In addition, in the series on A549 [4], the inhibition in vivo at 2 mg/kg worked out at 27%. Also, the inhibition entry in the series listed under Bos taurus [5] was “Active”. The outcome in the series with A549 [8] was Active. For the same molecule, in the series listed under Bos taurus [9], the inhibition result is “inactive”.
For the molecule `CC[C@@]1(O)C(=O)OCc2c1cc1n(c2=O)Cc2cc3c(CN(C)C)c(O)ccc3nc2-1` [TOPOTECAN], the IC50 is 917 nM in the series with MDA-MB-435, 88.9 nM in the series on HCT-116 and 2800 nM in the series on A549 [1]. In addition, the Activity entry in the series on Mus musculus [10] is given as “Non-toxic”; in the series with Mus musculus [11] it was 15.15 g. Besides, in the series with A549 [12], the inhibition in vivo at 0.5 mg/kg amounted to 57.5%.
In the case of `CC[C@@]1(O)C(=O)OCc2c1cc1n(c2=O)Cc2cc3ccccc3nc2-1` [CAMPTOTHECIN], the figures for the IC50 in the series on MDA-MB-435, in the series with HCT-116 and in the series on A549 [1] were 43.6 nM, 110 nM and 2610 nM, respectively. Further, in the series filed under Bos taurus [13], the inhibition entry was “Dose-dependent effect”.
As for `CCCCO[C@@H]1OCc2c(cc3n(c2=O)Cc2cc4ccccc4nc2-3)[C@@]1(O)CC`, the IC50 in the series on MDA-MB-435 was over 100000 nM; in the series with HCT-116, 95100 nM; in the series with A549 [1] it was over 100000 nM. Also, the inhibition result in the series filed under Bos taurus [5] is “Active”.
As to `CC[C@]1(O)c2cc3n(c(=O)c2CO[C@H]1OCC(F)(F)F)Cc1cc2ccccc2nc1-3`, the IC50 was 2300 nM in the series with MDA-MB-435, 309 nM with HCT-116 and 5970 nM with A549 [1]. Also, in the series filed under Bos taurus [5], the inhibition result was “Active”.
Consider `CC[C@]1(O)c2cc3n(c(=O)c2CO[C@H]1OC)Cc1cc2ccccc2nc1-3`, for which the IC50 stood at 3670 nM with MDA-MB-435, 532 nM with HCT-116 and 420 nM in the series with A549 [1]. Also, the inhibition result in the series listed under Bos taurus [5] was “Active”.
On to `CCOCCO[C@@H]1OCc2c(cc3n(c2=O)Cc2cc4cc(OC)ccc4nc2-3)[C@@]1(O)CC`, for which the IC50 turned out to be 210 nM with MDA-MB-435, 1 nM in the series on HCT-116 and 838 nM in the series with A549 [1]. Besides, in the series listed under Bos taurus [5], the inhibition result is “Active”. The inhibition result in the series listed under Bos taurus [9] is “inactive”.
For `CCCCCO[C@@H]1OCc2c(cc3n(c2=O)Cc2cc4ccccc4nc2-3)[C@@]1(O)CC`, the IC50 in the series with MDA-MB-435 was 10600 nM; with HCT-116, 127 nM; with A549 [1] it was 678 nM.

The values are drawn from ChEMBL document CHEMBL2086342, “Synthesis and preliminary bioevaluation of novel E-ring modified acetal analog of camptothecin as cytotoxic agents” (Eur J Med Chem, 2012).
